Data reported in patent US10633407B2, “14-membered ketolides and methods of their preparation and use” (President and Fellows of Harvard College, priority 2014, dated 2020).
In brackets after ≈: the same amount, converted by molar mass. Like-named read-outs stand apart in the source and are kept apart here.

Tests used:
Assay in all cases: CLSI broth dilution MIC determination
Assay type in all cases: cell-based
[1] = system: E. faecalis ATCC 29212
[2] = system: A. baumannii chromosomal class C
[3] = system: A. baumannii IMP-4
[4] = system: A. baumannii ATCC 19606
[5] = system: A. baumannii imipenem-resistant
[6] = system: S. pyogenes Macrolide-resistant; conditions: S. pyogenes Macrolide-resistant; Gram-positive
[7] = system: E. faecalis Vancomycin-resistant; conditions: E. faecalis Vancomycin-resistant; Gram-positive
[8] = system: S. pyogenes ATCC 19615; conditions: S. pyogenes ATCC 19615; Gram-positive
[9] = system: K. pneumoniae SHV-12
[10] = system: K. pneumoniae KPC-2
[11] = system: E. coli TEM-1
Summary of the method: (§1)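 Read-out is the MIC by broth dilution, done according to CLSI standard procedures, with azithromycin and solithromycin included as control macrolides in many runs.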

[12] = system: S. aureus ATCC 29213
Summary of the method: as §1

[13] = system: S. aureus USA600, GISA
Summary of the method: as §1

[14] = system: S. pneumoniae mef A genotype (second strain so labelled)
Summary of the method: as §1

[15] = system: S. aureus MRSA: USA100
Summary of the method: as §1

[16] = system: S. pneumoniae erm B + tet(M,O) genotype; conditions: Streptococcus pneumoniae
Summary of the method: as §1

[17] = system: S. aureus erm A genotype
Summary of the method: as §1

[18] = system: S. pneumoniae ATCC 49619; conditions: S. pneumoniae ATCC 49619; Gram-positive
Summary of the method: as §1

[19] = system: E. coli NDM-1
Summary of the method: as §1

[20] = system: S. aureus MRSA: USA300
Summary of the method: as §1

[21] = system: H. influenzae ATCC49247
Summary of the method: as §1

[22] = system: S. pneumoniae erm B + mef A genotype
Summary of the method: as §1

[23] = system: K. pneumoniae TEM-10
[24] = system: E. coli CTX-M-14
Summary of the method: as §1

[25] = system: E. coli ATCC 25922
Summary of the method: as §1

[26] = system: P. aeruginosa HPA101-1477
[27] = system: A. baumannii MP-577 Clinical-AZT low; conditions: Acinetobacter baumannii, read-out: MIC
[28] = system: H. influenzae Erythro >4, Azithro 1
Source text: MIC data was collected for the novel macrolides that this platform has produced against over 21 unique strains of B. subtilis, E. coli, S. aureus, S. pneumoniae, and H. influenzae, including several multidrug-resistant strains, with a special focus on macrolide resistant mechanisms (vide supra). […] CLSI standard procedures for broth dilution MIC determination were used. […] These genotypes can be constitutive or inducible.

[29] = system: P. aeruginosa ATCC 27853
[30] = system: K. pneumoniae ATCC 10031
[31] = Acinetobacter baumannii, read-out: MIC
[32] = Haemophilus influenzae, read-out: MIC

CC[C@H]1OC(=O)[C@@](C)(F)C(=O)[C@H](C)[C@@H](OC2OC(C)CC(N(C)C)C2O)[C@](C)(OC)C[C@@H](C)C(=O)[C@H](C)[C@H]2N(CCCCn3cc(-c4cccc(N)c4)nn3)C(=O)O[C@]12C (some centres unmarked) [Solithro, solithromycin, reference compound]
MIC ([1]; E. faecalis ATCC 29212 (MP-24)): 0.03 µg/mL (≈ 0.0355 µM)
MIC ([1]; E. faecalis ATCC 29212, Gram-positive): < 0.0312 µg/mL
MIC ([1]; Enterococcus faecalis, ATCC29212, E. faecalis ATCC 29212 (MP-24), read-out: MIC): < 0.0312 µg/mL
MIC [2, 31]: 8 µg/mL (≈ 9.47 µM)
MIC ([2]; Gram-negative): 8 µg/mL (≈ 9.47 µM)
MIC ([3]; Acinetobacter baumannii, IMP4, read-out: MIC): > 32 µg/mL
MIC ([3]; Gram-negative): > 32 µg/mL
MIC ([4]; A. baumannii ATCC 19606, Gram-negative): 8 µg/mL (≈ 9.47 µM)
MIC ([4]; Acinetobacter baumannii, ATCC19606, A. baumannii ATCC 19606 (MP-15), read-out: MIC): 8 µg/mL (≈ 9.47 µM)
MIC [5, 31]: 4 µg/mL (≈ 4.73 µM)
MIC ([5]; Gram-negative): 4 µg/mL (≈ 4.73 µM)
MIC [6]: 0.0625 µg/mL (≈ 0.074 µM)
MIC [7]: 32 µg/mL (≈ 37.9 µM)
MIC [8]: < 0.0312 µg/mL
MIC ([9]; Gram-negative): > 32 µg/mL
MIC ([9]; Klebsiella pneumoniae, SHV12, read-out: MIC): > 32 µg/mL
MIC ([10]; Gram-negative): > 32 µg/mL
MIC ([10]; Klebsiella pneumoniae, KPC2, read-out: MIC): > 32 µg/mL
MIC ([11]; E. coli TEM-1, Gram-negative): 32 µg/mL (≈ 37.9 µM)
MIC ([11]; Escherichia coli, TEM1): 32 µg/mL (≈ 37.9 µM)
MIC ([12]; S. aureus ATCC 29213, Gram-positive): 0.125 µg/mL (≈ 0.148 µM)
MIC ([12]; Staphylococcus aureus, ATCC29213): 0.125 µg/mL (≈ 0.148 µM)
MIC ([13]; S. aureus USA600, GISA, Gram-positive): > 32 µg/mL
MIC ([13]; Staphylococcus aureus, S. aureus USA600, GISA (MP-619 UNT-120), read-out: MIC): > 32 µg/mL
MIC ([14]; Gram-positive): 0.125 µg/mL (≈ 0.148 µM)
MIC ([14]; Streptococcus pneumoniae, second strain (MP-627 UNT-039)): 0.125 µg/mL (≈ 0.148 µM)
MIC ([14]; Streptococcus pneumoniae, second strain (MP-627 UNT-039), read-out: MIC): < 0.015 µg/mL
MIC ([15]; S. aureus MRSA: USA100, Gram-positive): > 32 µg/mL
MIC ([15]; Staphylococcus aureus, S. aureus MRSA: USA100 (MP-618 UNT-096), read-out: MIC): > 32 µg/mL
MIC [16]: < 0.0312 µg/mL
MIC ([17]; S. aureus erm A genotype, Gram-positive): > 32 µg/mL
MIC ([17]; Staphylococcus aureus, S. aureus erm A genotype (MP-620 UNT-146), read-out: MIC): > 32 µg/mL
MIC [18]: < 0.0312 µg/mL
MIC ([19]; Escherichia coli, NDM1, read-out: MIC): > 32 µg/mL
MIC ([19]; Gram-negative): > 32 µg/mL
MIC ([20]; S. aureus MRSA: USA300, Gram-positive): 1 µg/mL (≈ 1.18 µM)
MIC ([20]; Staphylococcus aureus, S. aureus MRSA: USA300 (MP-549, msr(a))): 0.125 µg/mL (≈ 0.148 µM)
MIC ([20]; Staphylococcus aureus, S. aureus MRSA: USA300 (MP-549, msr(a)), read-out: MIC): 1 µg/mL (≈ 1.18 µM)
MIC ([21]; Gram-negative): 4 µg/mL (≈ 4.73 µM)
MIC [21, 32]: 4 µg/mL (≈ 4.73 µM)
MIC ([22]; S. pneumoniae erm B + mef A genotype, Gram-positive): 0.25 µg/mL
MIC ([22]; Streptococcus pneumoniae): 0.25 µg/mL (≈ 0.296 µM)
MIC ([23]; Gram-negative): > 32 µg/mL
MIC ([23]; Klebsiella pneumoniae, TEM10, read-out: MIC): > 32 µg/mL
MIC ([24]; Escherichia coli, CTXM14, read-out: MIC): > 32 µg/mL
MIC ([24]; Gram-negative): > 32 µg/mL
MIC ([25]; E. coli ATCC 25922 (MP-4)): 16 µg/mL (≈ 18.9 µM)
MIC ([25]; E. coli ATCC 25922, Gram-negative): 32 µg/mL (≈ 37.9 µM)
MIC ([25]; Escherichia coli, ATCC25922, E. coli ATCC 25922 (MP-4), read-out: MIC): 32 µg/mL (≈ 37.9 µM)
MIC ([26]; Gram-negative): > 32 µg/mL
MIC ([26]; Pseudomonas aeruginosa, HPA1011477, read-out: MIC): > 32 µg/mL
MIC [27]: 32 µg/mL (≈ 37.9 µM)
MIC ([28]; H. influenzae Erythro >4, Azithro 1, Gram-negative): 2 µg/mL (≈ 2.37 µM)
MIC [28, 32]: 2 µg/mL (≈ 2.37 µM)
MIC ([29]; P. aeruginosa ATCC 27853, Gram-negative): > 32 µg/mL
MIC ([29]; Pseudomonas aeruginosa, ATCC27853, P. aeruginosa ATCC 27853 (MP-3), read-out: MIC): > 32 µg/mL
MIC ([30]; K. pneumoniae ATCC 10031 (MP-14)): 4 µg/mL (≈ 4.73 µM)
MIC ([30]; K. pneumoniae ATCC 10031, Gram-negative): 8 µg/mL (≈ 9.47 µM)
MIC ([30]; Klebsiella pneumoniae, ATCC10031, K. pneumoniae ATCC 10031 (MP-14), read-out: MIC): 8 µg/mL (≈ 9.47 µM)
